From patent US9651554B2, “Molecular diagnostic methods for predicting brain metastasis of breast cancer” (The Methodist Hospital Research Institute, priority 2010, dated 2017)

Tests used:
231-BR-HER2 cells = experiment: Brain metastasis xenograft, 231-BR-HER2 model: metastases counted in H&E-stained brain sections; details: for fewer large metastases than vehicle / fewer micrometastases than vehicle: 231-BR-HER2 cells, p<0.05; for Micro metastases # / large metastases #: 231-BR-HER2 model; for Micro metastases #: ≦50 μm^2; for large metastases #: >50 μm^2
in vivo = details: BALB/c nude, mouse, po
Experimental: Blood and whole brain of the mice were harvested 6 hours after the last treatment. Plasma was isolated from blood by centrifugation at 3000 rpm for 10 min at 4° C. Half of each brain was flash frozen using liquid nitrogen. All plasma and brain samples were stored at −80° C. until analysis by HPLC-MS/MS.
The separation was performed by injecting 10 μL of the sample on Acquity HPLC BEH C18 column (50×2.1 mm I.D., 1.7 μm, Waters, Milford, Mass., USA). […] The flow rate was 0.45 mL/min using a column temperature of 45° C.
The blood and whole brain of the mice were harvested six hours after the last treatment and the drug concentrations were measured by HPLC-MS/MS.

231-BR-vector cells = experiment: Brain metastasis xenograft, 231-BR-vector model: metastases counted in H&E-stained brain sections; details: for large metastases # / Micro metastases #: 231-BR-vector model; for large metastases #: >50 μm^2; for Micro metastases #: ≦50 μm^2
From the text: Treatment started 3 days after cell injection.
Brain sections (10 μm thick) were serially sectioned.
Mice received 28 days treatment, and all mice were sacrificed, and brains were harvested for ex vivo whole-brain fluorescent imaging of EGFP-positive brain metastases.

[1] = reported (Porkka et al., 2008); cited from earlier work
[2] = 40 mg/kg once daily oral 28 days
[3] = 80 mg/kg once daily oral 28 days
[4] = 25 mg/kg once daily oral 28 days
[5] = 50 mg/kg once daily oral 28 days

CCN(CC)CCNC(=O)c1c(C)[nH]c(/C=C2\C(=O)Nc3ccc(F)cc32)c1C [Sunitinib]
fewer large metastases than vehicle (231-BR-HER2 cells; 40 or 80 mg/kg body weight): 22.7-24.8% | fewer micrometastases than vehicle (231-BR-HER2 cells; 40 or 80 mg/kg body weight): 22.3-31.9% | Micro metastases # (231-BR-HER2 cells; [2]): 228.1 ± 28.3 | Micro metastases # (231-BR-HER2 cells; [3]): 199.8 ± 24.1 | Kp at 336 h (in vivo): 0.24 to 0.31 | fewer large metastasis than vehicle (231-BR-vector cells; 231-BR-vector cells, 80 mg/kg body weight, p<0.05): 31% | fewer micrometastases than vehicle (231-BR-vector cells; 231-BR-vector cells, 40 or 80 mg/kg body weight, p<0.05): 28.5-31.3% | large metastases # (231-BR-vector cells; [2]): 11.8 ± 2.0 | large metastases # (231-BR-vector cells; [3]): 10.2 ± 1.3 | Micro metastases # (231-BR-vector cells; [3]): 150.2 ± 22

Cc1nc(Nc2ncc(C(=O)Nc3c(C)cccc3Cl)s2)cc(N2CCN(CCO)CC2)n1 [Dasatinib]
fewer large metastases than vehicle (231-BR-HER2 cells; 25 or 50 mg/kg body weight): 38.1-56.9% | fewer micrometastases than vehicle (231-BR-HER2 cells; 25 or 50 mg/kg body weight): 40.2-61.4% | large metastases # (231-BR-HER2 cells; [4]): 12.5 ± 1.8 | Micro metastases # (231-BR-HER2 cells; [4]): 175.7 ± 27.8 | large metastases # (231-BR-HER2 cells; [5]): 8.7 ± 1.6 | Micro metastases # (231-BR-HER2 cells; [5]): 113.2 ± 23.8 | Kp at 336 h (in vivo): 0.06 to 0.12 | BBB crossing [1]: able to cross the BBB | fewer micrometastases than vehicle (231-BR-vector cells; 231-BR-vector cells, 25 or 50 mg/kg body weight, p<0.05): 33.8-54.4% | fewer large metastases than vehicle (231-BR-vector cells; 231-BR-vector cells, 25 or 50 mg/kg, p<0.05): 41.9-49.3% | large metastases # (231-BR-vector cells; [4]): 8.6 ± 1.5 | Micro metastases # (231-BR-vector cells; [4]): 144.6 ± 12.5 | large metastases # (231-BR-vector cells; [5]): 7.5 ± 1.3 | Micro metastases # (231-BR-vector cells; [5]): 99.5 ± 10.3
